Measured values from US20030161893A1, “PTPase inhibitors and methods of using the same” (priority 2001, published 2003).

Assays:
Baf3 cells = assay: Induction of cellular protein tyrosine phosphorylation in Baf3 cells (Western blotting); type: cell-based, murine; settings: Baf3 deprived of IL-3; proteins of about 55 and 32 kDa
Protocol: (§1) For induction of cellular protein phosphorylation by sodium stibogluconate or pervanadate, Baf3 cells were incubated in 0.1% FCS-RPMI 1640 medium at 37° C. for 16 hours. The cells were then washed twice in RPMI 1640 medium and incubated with sodium stibogluconate or pervanandate (0.1 mM) for various times prior to termination by lysing cells in cold lysis buffer (50 mM Tris, pH 7.4; 150 mM NaCl; 0.2 mM Na3VO4; 20 mm NaF; 1% Nonidet P-40; 2 mM PMSF; 20 μg/ml of Aprotinin and 1 mM of sodium molybdic acid). To determine the effect of sodium stibogluconate or potassium antimonyl tartrate on IL-3-induced Jak/Stat phosphorylation, Baf3 cells were deprived of the growth factor for 16 hours in 0.1% FCS RPMI 1640 medium and then incubated with or without sodium stibogluconate or potassium antimonyl tartrate for 10 minutes. IL-3 was next added to the cell suspension and incubated for various times. The Cells were then harvested and lysed in cold lysis buffer at 4° C. for 45 minutes. Total cell lysates (TCL) were separated in SDS-PAGE gels, blotted onto nitrocellulose membrane (Schleicher & Schuell), probed with specific antibodies and detected using an enhanced chemiluminescence kit (ECL, Amersham, Arlington Heights, Ill.).

Jak2/Stat5 = assay: IL-3-induced Jak2/Stat5 tyrosine phosphorylation in Baf3 cells; type: cell-based, murine
Protocol: as §1

Tyk2/Stat3 = assay: GM-CSF-induced Tyk2/Stat3 tyrosine phosphorylation in SHP-1-deficient cells; type: cell-based
AML-3 cells = assay: AML-3 cell differentiation; type: cell-based, human
DS cells = assay: Cell proliferation assay (MTT), DS lymphoma cells; type: cell-based, human; settings: day 3; IFN-alpha 1,000 u/ml
Protocol: For cell proliferation assays, cells were grown in 10% FCS culture medium containing various amounts of IFNs and/or sodium stibogluconate in 96 well plates and cultured at 37° C. for 3 or 6 days as indicated. The numbers of viable cells in proliferation assays were determined by MTT assays as described in Phatak et al., J. Immunol. 167, 3391 (2001).

O.O.O.O.O.O.O.O.O.O=C([O-])[C@@H]1[O][Sb]2([O-])([O][Sb]34([OH])[O][C@H]([C@H](O)CO)[C@H]([O]3)[C@H](C(=O)[O-])[O]4)[O][C@H]([C@H](O)CO)[C@@H]1[O]2.[Na+].[Na+].[Na+] [sodium stibogluconate]
cellular protein tyrosine phosphorylation (Baf3 cells): induced protein tyrosine phosphorylation
phosphotyrosine levels of Jak2 and Stat5 versus cells without drug (Jak2/Stat5; IL-3 stimulated, densitometry): about twice
Jak2/Stat5 tyrosine phosphorylation by drug alone (Jak2/Stat5; no IL-3, 37° C. for 16 hours): failed to induce Jak2/Stat5 tyrosine phosphorylation
GM-CSF-induced Tyk2/Stat3 tyrosine phosphorylation (Tyk2/Stat3): augmented
differentiation of AML-3 cells (AML-3 cells): inducing differentiation
activity against DS cells (DS cells): modest activity
